These results are taken from patent publication US7910575B2, “Prophylactic or therapeutic agents for allergic ophthalmic diseases or allergic nasal diseases, comprising tricyclic triazolobenzazepine derivative” (Meiji Seika Kaisha, Ltd., priority 2006, dated 2011).

Several values for one entry are separate records, joined by “and”; a condition that tells them apart may be missing. Equal entries are not always repeated. Structures can show the parent of a compound that is named as a salt. Marks after values point to notes of the source that are not given here.

The subject of series [1] is allergic rhinitis. Description: Prophylactic effect on allergic rhinitis (nasal drops immediately before induction). It is filed as in vivo, rat. The following applies: for Increase in dye leakage amount Inhibition ratio: immediately before antigen administration. On the procedure:
Male Sprague Dawley rats (n=6) were prepared. Bordetella pertussis (4×10^10) and 1 mg of dinitrophenylated ovalbumin (hereinafter referred to as “DNP-OA”) were subcutaneously administered into the footpad of the rats. […] After six hr from the antigen administration, Evans Blue (a dye) (50 mg/kg) was intravenously administered.
After nine hr from the induction of the allergic reaction, the nasal septal mucosa of the rats was harvested, and the weight of the tissue was measured. The tissue of the nasal septal mucosa was lysed with 1 N KOH, and the leakage amount of the dye was determined as an index of vascular permeability in the late phase of the allergic rhinitis.
In this case, physiological saline was administered instead of the antigen.
In the table, the inhibition ratio was calculated by the following equation. Inhibition(%)=100×{(B−A)−(C−A)}÷(B−A)
wherein A represents a negative control group (a nonsensitized group); B represents a control group; and C represents a medicament administered group.

In series [2] the test system is allergic rhinitis. Description: Therapeutic effect on allergic rhinitis (nasal drops one hr after induction). It is filed as in vivo, rat. The note with it: for Dye leakage amount increase Inhibition ratio: nasal drops, one hr after administration of the antigen. The protocol:
In the same manner as in Test Example 4-1, the allergic reaction was induced, and the vascular permeability in the late phase of the allergic rhinitis was measured. In this case, however, for the evaluation of the therapeutic effect, compound A, Amlexanox, and Ketotifen were administered one hr after the induction of the allergic reaction. Since greenie was leaked, the dose was doubled (10 μL) so that the dispersion of the medicament within the nasal cavities is not inhibited, and the concentration of the medicament was regulated with physiological saline to the half of the concentration in the experiment on prophylactic effect to render the dose per individual identical.
The medicament was administered one hr after the administration of the antigen.

Series [3] concerns allergic conjunctivitis. Description: Therapeutic effect on allergic conjunctivitis (instillation three hr after induction). Format: in vivo, rat. The note with it: for Tissue weight increase: 5 μL/eye three hr after induction of the allergic reaction; for therapeutic effect on allergic conjunctivitis (in words): instillation three hr after induction. The protocol:
Compound A, Betamethasone, control group, and negative control group were administered at the same concentration as in Test Example 1-1, and the concentration of Betamethasone was as shown in Table 3. The test was carried out in the same manner as in Test Example 1-1, except that, three hr after the induction of the allergic reaction, for compound A, Betamethasone, control group, and negative control group were administered, the test solution was administered at a dose of 5 μL/eye to the right eye.

The test system of series [4] is epithelial cells of cornea in human eyes. The experiment in a line: Toxicity against epithelial cells of cornea, 24-hr cell survival rate. Format: cell-based. The text has this:
Specifically, toxicity against epithelial cells of cornea in human eyes was studied.

Series [5] relates to allergic conjunctivitis. The experiment in a line: Prophylactic effect on allergic conjunctivitis (instillation before induction, late phase). Format: in vivo, rat. The note with it: for Inhibition ratio Increase in tissue weight: Test Example 1-2, medicament concentration 0.1%, instillation before induction; for Inhibition ratio (%) Increase in tissue weight: 5 μL/eye 15 min before induction; for Inhibition ratio (%) Increase in dye leakage amount: 15 min before induction, Evans Blue. The protocol:
Male SD rats were prepared. Bordetella pertussis (4×10^10) and 1 mg of dinitrophenylated ovalbumin (hereinafter often abbreviated to “DNP-OA”) were subcutaneously administered into the footpad of the rats. After 8 to 10 days from the administration, a 3% DNP-OA solution was administered to the right eye of the rats to induce an allergic reaction. In some experiments, in order to confirm dye leakage and location of edema, a dye was injected, and, in the anatomy, the coincidence of dye leakage with the location of edema was confirmed. […] After 9 hr from the induction of the allergic reaction, the eyeballs of the rats were harvested. Further, lenses, hydatoids, and the contents of the vitreous body were removed from the eyeballs, and the weight of the tissues was measured. Furthermore, the dye leakage amount in the harvested eye tissue was measured. […] The absorbance (630 nm) of Evans Blue in the supernatant was measured with Multiskan JX (manufactured by Labsystem Ltd.). The amount of the dye was regarded as a dye leakage amount. […] For the control group, 0.15 M sodium hydrogencarbonate adjusted to pH 7.2 was administered. For a negative control group (a nonsensitization group), a 3% DNP-OA solution was administered to the right eye of the nonsensitized rats, and the solvent was used into the same manner as in the control group. The medicament or the solvent was administered to the right eye (5 μL/eye) 15 min before the induction of the allergic reaction. Compound A was administered at concentrations of 0.01%, 0.1%, and 1% for studies of dose response. In the table, the inhibition ratio was calculated by the following equation.

Series [6] is described as follows: Concentration of compound A in the eye tissue after instillation. Format: in vivo, rabbit. The protocol: A test solution (0.1% or 1%) of compound A in an isotonic borate buffer solution adjusted to pH 7.4 and a test solution (0.1%) of compound B in an isotonic borate buffer solution were provided, and 50 μL of each test solution was administered as ocular instillation to male rabbits.
The concentration of compound A in the eye tissue after instillation was measured as follows. At the outset, the tissue was removed from the test animals and was cryopreserved. Purified water (0.1 mL) was added to a sufficient quantity of the cryopreserved tissue and the like followed by homogenization. Thereafter, 0.5 mL of 0.1% phosphoric acid, 0.05 mL of an internal standard solution (a predetermined internal standard substance ([…]) described in WO 95/18130), 0.05 mL of acetonitrile, and 0.05 mL of purified water were added thereto. An extraction solvent (25% chloroform/diethyl ether) (8 mL) was added, and the mixture was shaken and centrifuged. Thereafter, 7 mL of the organic layer was evaporated to dryness under the negative pressure, and the residue was dissolved in 0.3 mL of a mobile phase to give an analyte. A liquid prepared by mixing and dissolving 0.55 g of tetraoxyl ammonium bromide into 450 mL of acetonitrile, 450 mL of 10 mM phosphate buffer solution, and 100 mL of methanol was used as the mobile phase. The concentration of compound A was measured by injecting 0.025 mL of the analyte into high-performance liquid chromatography (HPLC) (measurement conditions: fluorescence excitation 270 nm, emission 466 nm).
The concentration of only compound A in the eye tissue was measured because compound B is a prodrug of compound A.

Another series concerns rabbit eye (conjunctiva). The experiment in a line: Severe eye irritation test using rabbits. Format: in vivo. The following applies: instillation six times per day at 30 min intervals for two days.
The subject of series [7] is allergic conjunctivitis. The experiment in a line: Prophylactic effect on allergic conjunctivitis (instillation before induction, late phase). It is filed as in vivo, rat.
Setting [8] is: Test Example 4-2, nasal drops at concentrations of Table 9.
[9] abbreviates: medicament concentration 0.1%, 0.5 μg/rat, 9 hr after induction.
Setting [10] is: medicament concentration 1%, 5 μg/rat, 9 hr after induction.

Turning to `CC(C)c1ccc2oc3nc(N)c(C(=O)O)cc3c(=O)c2c1` [Amlexanox], the “prophylactic effect on allergic rhinitis (in words)” value (“prophylactic effect” for short) in the series on allergic rhinitis [1] (setting [8]) is recorded as “had prophylactic effect on allergic rhinitis”. The “Increase in dye leakage amount Inhibition ratio” value in the series with allergic rhinitis [1] (Test Example 4-2, nasal drops, 0.25%, 25 μg/rat) stood at 81.1% **. For the same molecule, in the series with allergic rhinitis [2] (0.125%, 25 μg/rat), the “Dye leakage amount increase Inhibition ratio” value is on record as 25.0%.

For the molecule `C[C@H]1C[C@H]2[C@@H]3CCC4=CC(=O)C=C[C@]4(C)[C@@]3(F)[C@@H](O)C[C@]2(C)[C@@]1(O)C(=O)COP(=O)([O-])[O-].[Na+].[Na+]` [Betamethazone, betamethazone sodium phosphate, reference compound], the Tissue weight increase in the series with allergic conjunctivitis [3] (0.1%) is listed as 74.8% **. In the series with allergic conjunctivitis [3], the “therapeutic effect on allergic conjunctivitis (in words)” value was “potent therapeutic effect”.

Take `COc1cc2[nH]c(=O)c3nn[nH]c3c(=O)c2cc1OC` [Compound A, 7,8-Dimethoxy-4(5H),10-dioxo-1H-1,2,3-triazolo[4,5-c][1]benzazepine]: the “prophylactic effect” value in the series on allergic rhinitis [1] (Test Example 4-1, nasal drops 0.01% to 1%) was “effective against allergic rhinitis dose-dependently”; in the series on allergic rhinitis [1] (setting [8]) it was “had prophylactic effect on allergic rhinitis”. Besides, the “Increase in dye leakage amount Inhibition ratio” value in the series on allergic rhinitis [1] (Test Example 4-2, nasal drops, 0.1%, 10 μg/rat) worked out at 95.7% **; with allergic rhinitis [1] (nasal drops, 0.01%, 1 μg/rat, nasal septal mucosa 9 hr after induction) it was 52.9% **; with allergic rhinitis [1] (nasal drops, 0.1%, 10 μg/rat, 9 hr after induction), 111.7% **; with allergic rhinitis [1] (nasal drops, 1%, 100 μg/rat, 9 hr after induction), 123.1% **. Further, in series [4] (0.3 mM versus 4.7 μM (0.1% liquid instillation)), the “non-toxic concentration relative to the maximum eye tissue concentration” value is on record as “not less than 60 times”. Besides, in series [4] (concentration range of 100 nM to 0.3 mM), the “toxicity against epithelial cells of cornea (24-hr cell survival rate)” value is listed as “any toxicity was not observed”. For the same molecule, the Tissue weight increase with allergic conjunctivitis [3] (0.01%) was determined as 70.3% **; in the series on allergic conjunctivitis [3] (0.1%), 99.9% **; in the series on allergic conjunctivitis [3] (1%) it was 103.7% **. Moreover, the “therapeutic effect on allergic conjunctivitis (in words)” value in the series with allergic conjunctivitis [3] was “potent therapeutic effect”. Moreover, in the series with allergic rhinitis [2] (nasal drops one hr after antigen), the “therapeutic effect on allergic rhinitis (in words)” value was “exhibited therapeutic effect on the allergic rhinitis”. The “Dye leakage amount increase Inhibition ratio” value with allergic rhinitis [2] (0.05%, 10 μg/rat) was found to be 93.8% **. Moreover, the “Inhibition ratio Increase in tissue weight” value (“Inhibition ratio Increase” below) in the series with allergic conjunctivitis [5] is 99.1% **. Further, the “Inhibition ratio (%) Increase in tissue weight” value in the series with allergic conjunctivitis [5] (medicament concentration 0.01%, 0.05 μg/rat, eye harvested 9 hr after induction) came to 67.0% **; with allergic conjunctivitis [5] (setting [9]), 89.0% **; with allergic conjunctivitis [5] (setting [10]), 83.7% **. In addition, the “Inhibition ratio (%) Increase in dye leakage amount” value with allergic conjunctivitis [5] (medicament concentration 0.01%, 0.05 μg/rat, 9 hr after induction) is 74.4% **; in the series with allergic conjunctivitis [5] (setting [9]) it was 83.9% **; with allergic conjunctivitis [5] (setting [10]) it was 87.6% **. The “maximum eye tissue concentration” value in series [6] (instillation of a 0.1% liquid) is 1.29 μg/g and 4.7 μM. For the same molecule, the concentration at 0.25 h in series [6] (male, eye tissue, topical, 50 μL of 1% solution, 1% test solution, 50 μL instillation, rabbit, 0.25 hr after instillation, average ± standard error) stood at 6090 ± 2200 ng/g. The same molecule came in with a concentration at 1 h in series [6] (male, eye tissue, topical, 50 μL of 1% solution, 1% test solution, 50 μL instillation, rabbit, 1 hr after instillation) of 1150 ± 830 ng/g. Further, in series [6] (male, eye tissue, topical, 50 μL of 1% solution, 1% test solution, 50 μL instillation, rabbit, 2 hr after instillation), the concentration at 2 h is 1260 ± 940 ng/g. In series [6] (male, eye tissue, topical, 50 μL of 1% solution, 1% test solution, 50 μL instillation, rabbit, 4 hr after instillation), the concentration at 4 h came to 1380 ± 540 ng/g. In series [6] (male, eye tissue, topical, 50 μL of 1% solution, 1% test solution, 50 μL instillation, rabbit, 8 hr after instillation), this molecule yielded a concentration at 8 h of 660 ± 420 ng/g. The molecule further displayed a concentration at 24 h in series [6] (male, eye tissue, topical, 50 μL of 1% solution, 1% test solution, 50 μL instillation, rabbit, 24 hr after instillation) of 60 ± 60 ng/g. Besides, the eye irritation entry in the series with rabbit eye (conjunctiva) (0.5%) is reported as “irritation was not observed at all”; with rabbit eye (conjunctiva) (3%) it was “only slight reddening of the conjunctiva was observed”.

Take `O=C(O)c1cc(=O)c2c(OCC(O)COc3cccc4oc(C(=O)O)cc(=O)c34)cccc2o1` [Cromoglycate, cromoglycate sodium]: the “Inhibition ratio Increase” value in the series on allergic conjunctivitis [7] (Test Example 1-2, medicament concentration 2%) worked out at 14.7%. For the same molecule, the “Increase in dye leakage amount Inhibition ratio” value with allergic rhinitis [1] (Test Example 4-2, nasal drops, 2%, 200 μg/rat) came to 2.9%.

For `CC(=O)[C@@]1(O)CC[C@H]2[C@@H]3C[C@H](C)C4=CC(=O)C=C[C@]4(C)[C@@]3(F)[C@@H](O)C[C@@]21C` [Fluorometholone, fluorometholone, reference compound], in the series with allergic conjunctivitis [5], the “Inhibition ratio Increase” value was determined as 59.4% *.

Take `CCC(=O)O[C@]1(C(=O)SCF)[C@H](C)C[C@H]2[C@@H]3C[C@H](F)C4=CC(=O)C=C[C@]4(C)[C@@]3(F)[C@@H](O)C[C@@]21C` [Fluticasone, fluticasone propinate]: the “Increase in dye leakage amount Inhibition ratio” value in the series with allergic rhinitis [1] (Test Example 4-2, nasal drops, 0.051%, 5.1 μg/rat) was found to be 106.0% **.

In the case of `CN1CCC(=C2c3ccccc3CC(=O)c3sccc32)CC1` [Ketotifen, ketotifen fumarate], in the series with allergic conjunctivitis [7] (Test Example 1-2, medicament concentration 0.05%), the “Inhibition ratio Increase” value worked out at 13.4%. The “prophylactic effect” value in the series with allergic rhinitis [1] (setting [8]) is reported as “had prophylactic effect on allergic rhinitis”. The “Increase in dye leakage amount Inhibition ratio” value in the series with allergic rhinitis [1] (Test Example 4-2, nasal drops, 0.055%, 5.5 μg/rat) came to 49.4%. In addition, the “Dye leakage amount increase Inhibition ratio” value with allergic rhinitis [2] (0.0275%, 5.5 μg/rat) is reported as 48.6%.

In the case of `C[C@@H]1CN([C@H]2CC[C@](C#N)(c3ccc(F)cc3)CC2)CC[C@]1(C(=O)O)c1ccccc1` [Levocabastine, levocabastine hydrochloride], the “Inhibition ratio Increase” value in the series with allergic conjunctivitis [7] (Test Example 1-2, medicament concentration 0.025%) stood at 11.1%. Moreover, in the series with allergic rhinitis [1] (Test Example 4-2, nasal drops, 0.025%, 2.5 μg/rat), the “Increase in dye leakage amount Inhibition ratio” value is recorded as 22.7%.
